According to patent US7015237B2, “Pyridine matrix metalloproteinase inhibitors” (Warner-Lambert Company, priority 2001, dated 2006):

Target: MMP-13 (catalytic domain of collagenase 3) (Homo sapiens, UniProt P45452)
Assay: Thiopeptolide substrate hydrolysis assay, MMP-13
Format: biochemical
Details: catalytic domain of collagenase 3; Table 1; read-out: MMP-13 IC50
Source text: The assays used to evaluate the biological activity of the invention compounds are well known and routinely used by those skilled in the study of MMP inhibitors and their use to treat clinical conditions.
The assays measure the amount by which a test compound reduces the hydrolysis of a thiopeptolide substrate catalyzed by a matrix metalloproteinase enzyme. Such assays are described in detail by Ye et al., in Biochemistry, 1992; 31(45):11231–11235, which is incorporated herein by reference.
Thiopeptolide substrates show virtually no decomposition or hydrolysis at or below neutral pH in the absence of a matrix metalloproteinase enzyme. A typical thiopeptolide substrate commonly utilized for assays is Ac-Pro-Leu-Gly-thioester-Leu-Leu-Gly-OEt. A 100-μL assay mixture will contain 50 mM of N-2-hydroxyethylpiperazine-N′-2-ethanesulfonic acid buffer (“HEPES”) at pH 7.0, 10 mM CaCl2, 100 μM thiopeptolide substrate, and 1 mM 5,5′-dithio-bis-(2-nitro-benzoic acid) (DTNB). The thiopeptolide substrate concentration may be varied from, for example, 10 to 800 μM to obtain Km and Kcat values. The change in absorbance at 405 nm is monitored on a Thermo Max microplate reader (Molecular Devices, Menlo Park, Calif.) at room temperature (22° C.). The calculation of the amount of hydrolysis of the thiopeptolide substrate is based on E412=13600 M^−1 cm^−1 for the DTNB-derived product 3-carboxy-4-nitrothiophenoxide. Assays are carried out with and without matrix metalloproteinase inhibitor compounds, and the amount of hydrolysis is compared for a determination of inhibitory activity of the test compounds.
In the tables, MMP-1 refers to full-length interstitial collagenase; MMP-3 refers to the catalytic domain of stromelysin-1; MMP-13 refers to the catalytic domain of collagenase 3. Test compounds were evaluated at various concentrations to determine their respective IC50 values.

Row | IC50 | Compound
1 | 0.035 µM | COc1cccc(CNC(=O)c2ccnc(C(=O)NCc3cccc(OC)c3)c2)c1 [Example 1, Pyridine-2,4-dicarboxylic acid bis-(3-methoxy-benzylaride)]
2 | 0.23 µM | COc1ncc(C(=O)NCc2ccc3c(c2)OCO3)cc1C(=O)NCc1ccc2c(c1)OCO2 [Example 4, 2-Methoxy-pyridine-3,5-dicarboxylic acid bis-[(1,3-benzodioxol-5-ylmethyl)-amide]]
3 | 0.014 µM | O=C(NCc1ccc2c(c1)OCO2)c1ccnc(C(=O)NCc2ccc3c(c2)OCO3)c1 [Example 8, Pyridine-2,4-dicarboxylic acid bis-[(1,3-benzodioxol-5-ylmethyl)-amide]]

Same assay, conditions: catalytic domain, human; combinatorial compounds of Example 14; Table 2; read-out: MMP-13 IC50 CD/Human

Row | Compound | IC50
4 | COc1cccc(CNC(=O)c2ccnc(C(=O)NCc3cccc(OC)c3)c2)c1 [Example 14.1, Pyridine-2,4-dicarboxylic acid bis-(3-methoxy-benzylamide)] | 0.038 µM
5 | O=C(NCc1ccc2c(c1)OCO2)c1ccnc(C(=O)NCc2ccc3c(c2)OCO3)c1 [Example 14.2, Pyridine-2,4-dicarboxylic acid bis-[(1,3-benzodioxol-5-ylmethyl)-amide]] | 0.033 µM
6 | O=C(NCc1ccc(Cl)cc1)c1ccnc(C(=O)NCc2ccc(Cl)cc2)c1 [Example 14.4, Pyridine-2,4-dicarboxylic acid bis-(4-chloro-benzylamide)] | 0.3 µM
7 | O=C(NCc1cccc2ccccc12)c1ccnc(C(=O)NCc2cccc3ccccc23)c1 [Example 14.6, Pyridine-2,4-dicarboxylic acid bis-[(naphthalen-1-ylmethyl)-amide]] | 30 µM
8 | COc1ccc(CNC(=O)c2ccnc(C(=O)NCc3ccc(OC)cc3)c2)cc1 [Example 14.8, Pyridine-2,4-dicarboxylic acid bis-(4-methoxy-benzylamide)] | 0.13 µM
9 | O=C(NCc1cccc(F)c1)c1ccnc(C(=O)NCc2cccc(F)c2)c1 [Example 14.9, Pyridine-2,4-dicarboxylic acid bis-(3-fluoro-benzylamide)] | 0.18 µM
10 | O=C(NCCc1ccccc1Oc1ccccc1)c1ccnc(C(=O)NCCc2ccccc2Oc2ccccc2)c1 [Example 14.12, Pyridine-2,4-dicarboxylic acid bis-{[2-(2-phenoxy-phenyl)-ethyl]-amide}] | 30 µM
11 | CCc1ccc(CCNC(=O)c2ccnc(C(=O)NCCc3ccc(CC)cc3)c2)cc1 [Example 14.19, Pyridine-2,4-dicarboxylic acid bis-{[2-(4-ethyl-phenyl)-ethyl]-amide}] | 30 µM
12 | O=C(NC(Cc1ccccc1)c1ccccc1)c1ccnc(C(=O)NC(Cc2ccccc2)c2ccccc2)c1 (centres unmarked) [Example 14.21, Pyridine-2,4-dicarboxylic acid bis-[(1,2-diphenyl-ethyl)-amide]] | 30 µM
13 | O=C(NCc1ccc(Cl)cc1Cl)c1ccnc(C(=O)NCc2ccc(Cl)cc2Cl)c1 [Example 14.22, Pyridine-2,4-dicarboxylic acid bis-(2,4-dichloro-benzylamide)] | 30 µM
14 | O=C(NCc1ccccc1-c1ccccc1)c1ccnc(C(=O)NCc2ccccc2-c2ccccc2)c1 [Example 14.23, Pyridine-2,4-dicarboxylic acid bis-[(biphenyl-2-ylmethyl)-amide]] | 30 µM
15 | O=C(NCc1cccc(Cl)c1)c1ccnc(C(=O)NCc2cccc(Cl)c2)c1 [Example 14.25, Pyridine-2,4-dicarboxylic acid bis-(3-chloro-benzylamide)] | 0.074 µM

The remaining lines, values ahead:

Row | IC50 | Compound
16 | 2 µM | O=C(NCc1ccncc1)c1ccnc(C(=O)NCc2ccncc2)c1 [Example 14.32, Pyridine-2,4-dicarboxylic acid bis-[(pyridin-4-ylmethyl)-amide]]
17 | 0.31 µM | O=C(NCc1cccc(C(F)(F)F)c1)c1ccnc(C(=O)NCc2cccc(C(F)(F)F)c2)c1 [Example 14.35, Pyridine-2,4-dicarboxylic acid bis-(3-trifluoromethyl-benzylamide)]
18 | 0.26 µM | O=C(NCc1cccc(OC(F)F)c1)c1ccnc(C(=O)NCc2cccc(OC(F)F)c2)c1 [Example 14.37, Pyridine-2,4-dicarboxylic acid bis-(3-difluoromethoxy-benzylamide)]
19 | 0.28 µM | O=C(NCc1ccc(F)c(C(F)(F)F)c1)c1ccnc(C(=O)NCc2ccc(F)c(C(F)(F)F)c2)c1 [Example 14.39, Pyridine-2,4-dicarboxylic acid bis-(4-fluoro-3-trifluoromethyl-benzylamide)]
20 | 0.04 µM | O=C(NCc1ccc(F)c(Cl)c1)c1ccnc(C(=O)NCc2ccc(F)c(Cl)c2)c1 [Example 14.42, Pyridine-2,4-dicarboxylic acid bis-(3-chloro-4-fluoro-benzylamide)]
21 | 70 µM | Nc1ccc(CNC(=O)c2ccnc(C(=O)NCc3ccc(N)cc3)c2)cc1 [Example 14.44, Pyridine-2,4-dicarboxylic acid bis-(4-amino-benzylamide)]
22 | 30 µM | COc1ccc(C(NC(=O)c2ccnc(C(=O)NC(c3ccc(OC)cc3)c3ccc(OC)cc3)c2)c2ccc(OC)cc2)cc1 [Example 14.46, Pyridine-2,4-dicarboxylic acid bis-{[bis-(4-methoxy-phenyl)-methyl]-amide}]
23 | 30 µM | O=C(NCCC(c1ccccc1)c1ccccc1)c1ccnc(C(=O)NCCC(c2ccccc2)c2ccccc2)c1 [Example 14.47, Pyridine-2,4-dicarboxylic acid bis-[(3,3-diphenyl-propyl)-amide]]
24 | 84 µM | O=C(NCc1ccccc1F)c1ccnc(C(=O)NCc2ccccc2F)c1 [Example 14.50, Pyridine-2,4-dicarboxylic acid bis-(2-fluoro-benzylamide)]
25 | 1.5 µM | Cc1ccc(CNC(=O)c2ccnc(C(=O)NCc3ccc(C)cc3)c2)cc1 [Example 14.54, Pyridine-2,4-dicarboxylic acid bis-(4-methyl-benzylamide)]
26 | 34 µM | O=C(NCc1cccnc1)c1ccnc(C(=O)NCc2cccnc2)c1 [Example 14.57, Pyridine-2,4-dicarboxylic acid bis-[(pyridin-3-ylmethyl)-amide]]
27 | 13 µM | O=C(NCc1cccs1)c1ccnc(C(=O)NCc2cccs2)c1 [Example 14.60, Pyridine-2,4-dicarboxylic acid bis-[(thiophen-2-ylmethyl)-amide]]
28 | 30 µM | O=C(NCc1ccc(C(F)(F)F)cc1)c1ccnc(C(=O)NCc2ccc(C(F)(F)F)cc2)c1 [Example 14.61, Pyridine-2,4-dicarboxylic acid bis-(4-trifluoromethyl-benzylamide)]
29 | 88 µM | Cc1ccc(CNC(=O)c2ccnc(C(=O)NCc3ccc(C)o3)c2)o1 [Example 14.62, Pyridine-2,4-dicarboxylic acid bis-[(5-methyl-furan-2-ylmethyl)-amide]]
30 | 30 µM | CC(NC(=O)c1ccnc(C(=O)NC(C)c2cccc3ccccc23)c1)c1cccc2ccccc12 (centres unmarked) [Example 14.65, Pyridine-2,4-dicarboxylic acid bis-[(1-naphthalen-1-yl-ethyl)-amide]]
31 | 30 µM | O=C(NCCc1ccc(O)cc1)c1ccnc(C(=O)NCCc2ccc(O)cc2)c1 [Example 14.66, Pyridine-2,4-dicarboxylic acid bis-{[2-(4-hydroxy-phenyl)-ethyl]-amide}]
32 | 4 µM | O=C(NCc1cccc(OC(F)(F)F)c1)c1ccnc(C(=O)NCc2cccc(OC(F)(F)F)c2)c1 [Example 14.67, Pyridine-2,4-dicarboxylic acid bis-(3-trifluoromethoxy-benzylamide)]
